Reference: patent US9144594B2, “Cathepsin L mediated diseases and associated methods and products” (University of Miami, priority 2005, dated 2015)
Where a chain is given by its changes, count along the chain named. Names and notes keep the numbering of the source. “Also recorded” adds a separate entry of the source. Blank lines part the entries; values can stand above or below the molecule they belong to.

How the values were obtained:
[1] = system: dynamin-dynamin interactions; test: FLIM analysis of dynamin-dynamin interactions (self-assembly) in podocytes; assay type: cell-based, mouse; settings: for Mean Lifetime (γ1): Table 4, donor GTPase-a488, acceptor Hudy1-a568, in ps; for dynamin self-assembly by FLIM, in words: podocytes pretreated
Procedure: In one embodiment the cell-based assay to monitor dynamin-dynamin interactions is performed on a cultured mouse podocyte cell line and the readout of dynamin self-assembly using fluorescence lifetime imaging microscopy (FLIM). FLIM is based on the fluorescence resonance energy transfer (FRET) between the donor and acceptor that shortens the lifetime of the donor if the acceptor distance is within ≈100 Å (10 nm). […] The assay is based on overexpressing dynamin in podocytes, and subsequently staining fixed cells with monoclonal anti-dynamin antibodies that have been conjugated with donor or acceptor florophores. In one embodiment of the invention, Alexa-488 is used as the donor florophore and Alexa-568 is used as the acceptor florophore. In yet another embodiment the donor florophore is dynamin conjugated enhanced-cyan fluorescence protein (ECFP) and the acceptor is dynamin conjugated enhanced yellow-fluorescence protein (EYFP). It will be appreciated by the person of ordinary skill in the art that numerous combinations of FRET donor and acceptors can be used, which are readily available and known. In one embodiment, the FLIM assay is carried out in COS cells and the donor can be selected from the list consisting of: ECFP-WT, ECFP-1690K, ECFP-K44A, ECFP-K694A, and the -acceptor can be selected from the list consisting of: EYFP, EYFP-WT, EYFP-K44A, EYFP-1690K, EYFP-K694A. In yet another embodiment the FLIM assay is performed in podocytes and the donor is GTPase-Alexa488 and the acceptor is selected from the list consisting of: DAM-Alexa568, GTPase-Alexa568, and Hudyl-Alexa568. Cells are stained by mixing both donor and acceptor florophores in equal amounts, and examining the spatially-restricted lifetime shortening in cells detects the localization of dynamin-dynamin interactions in cells. Since dynamin-dynamin interactions are vital for the function of the podocyte, it will be appreciated by the person of ordinary skill in the art that this assay can now be used to screen peptides, small molecules or drugs which can affect these molecular interactions. For example such molecules are cytocholasin D, jasplakinolide, colchisine, dynK44A, dynK694A, dynWT, dynI690K, dynR725A (SEQ ID NO.4), dynL356Q, G358V, (SEQ ID NO.3) any combination thereof, etc.
In order to test the hypothesis that self-assembly of dynamin was protecting its cathepsin L processing in cultured podocytes, dynamin self-assembly in live cells was examined using fluorescence lifetime imaging microscopy (FLIM). FLIM is based on the fluorescence resonance energy transfer (FRET) between the donor and the acceptor that shortens the lifetime of the donor if the acceptor distance is within ≈100 Å (10 nm). […] A FLIM-assay was developed that specifically detects dynamin self-assembly into the higher order structures in podocytes. The assay is based on overexpressing dynamin in podocytes, and subsequently staining fixed cells with monoclonal anti-dynamin antibodies that have been conjugated with either Alexa-488 (donor florophore) or Alexa-568 (acceptor florophore). Cells are stained by mixing both florophores in equal amounts, and examining lifetime of Alexa-488. […] Importantly, FRET only occurred in the vicinity of the membrane. […] Thus, both dominant activating mutants, dynK694A and dynR725A, are impaired for assembly into a supramolecular structures in podocytes under normal conditions. […] Loss of FRET measured FLIM correlates with the loss of p40 proteolytic fragment in cultured podocytes. And presence of p40 in cells expressing dynR725A under normal conditions correlates with the lack of dynR725A assembly detected by FLIM. The opposite is true for the dynWT; lack of p40 under control conditions when FLIM is present, and appearance of the p40 upon LPS treatment with no measurable FRET. […] Finally, proteolytic processing of dynamin after LPS treatment is also observed in vivo. […]

[2] = system: dynamin-dynamin interactions; test: FLIM analysis of dynamin-dynamin interactions in live COS cells; assay type: cell-based; settings: for dynamin-dynamin interactions measured by FLIM, in words: COS cells pre-treated; for Mean Lifetime (γ1) ps: Table 3
Description: FLIM is based on the fluorescence resonance energy transfer (FRET) between the donor and acceptor that shortens the lifetime of the donor if the acceptor distance is within ≈100 Å (10 nm). […] To this end, dynamin was tagged with either ECFP or EYFP on its N- and C-termini. Fusion proteins were expressed in COS cells, because these cells are flattened and have minimal background autofluorescence, which allows clear visualization of cells by wide-field microscopy.
The observed decrease in fluorescence lifetime of CFP-dynamin in cells expressing EYFP-dynamin could result from interactions between dynamin monomers within tetramers/dimers, or from interactions between assembled tetramers/dimmers into higher order structures (FIG. 8C). To distinguish these two possibilities, we used FLIM to examine dynI690K. […] The longer average lifetimes of dynI690K than dynwt argue strongly that the assay detects higher order dynamin self-assembly and not tetramer formation.

cathepsin L = target: T1, cathepsin L (Homo sapiens, UniProt P07711); test: Processing of recombinant dynamin by purified CatL in vitro; assay type: biochemical
T1 construct: purchased Sigma, Saint Louis, Mo
Procedure: Reinheckel and colleges have developed the bioinformatics tool ‘PEPS’ (Prediction of Endopeptidase Substrates) to predict endopeptidase cleavage sites. By using PEPS, three putative cathepsin L sites within dynamin were identified (FIG. 4A). To assess whether cathepsin L could cleave dynamin at neutral pH 7.0, recombinant dynamin 1 was incubated with purified cathepsin L (Stressgene) and respective proteolytic fragments were determined using anti-dynamin antibodies that recognize N-terminal GTPase domain (Stressgene). […] The most prominent proteolytic fragment traveled with molecular weight of approximately 40 kD. […] Thus, self-assembly of dynamin:GTPγS protected from cathepsin L cleavage. The middle domain and the […] mediate dynamin self-assembly into higher order structures. Based on the 3D-structure of self-assembled dynamin determined by cry-EM, the middle and the GAP domains are localized within self-assembled dynamin and thus amino acid sequences situated within either of these domains are predicted to be inaccessible for cathepsin L. Since activity of cathepsin L at pH 7.0 was marginal if GTP was not added in the assay, in order to examine whether GTPγS and thus self-assembly can protect from cathepsin L cleavage in general, assays were performed at lower pHs. As expected, at pH 5.0 and 6.0 cathepsin L potently proteolyzed recombinant dynamin (FIG. 4E). […] Thus, generation of 40 kD fragment upon addition of GTP in the assay and protection of the cleavage by GTPγS are consistent with primary cleavage site for cathepsin L to be present within the middle domain.
GTP in vitro and in vivo. To further examine if proteolysis of dynamin by cytoplasmic CatL occurs during proteinuric kidney disease, it was examined whether purified dynamin is cleaved by CatL in vitro at neutral pH. The PEPS algorithm identified three putative CatL recognition motifs within dynamin (FIG. 19A): amino acids 55-59 (LPRGS; SEQ ID NO.28) within the GTPase domain, 354-359 (ELSGGA; SEQ ID NO.29) within the middle domain, and 614-618 (FLRAG; SEQ ID NO.30) within the pleckstrin-homology (PH) domain. […] The cleavage pattern obtained in vitro is almost identical to that observed in podocytes after addition of LPS (FIG. 18A, compare lanes 3 and 5). p40 is the predicted size of the N-terminal fragment after cleavage at the ELSGGA sequence (FIG. 19A; SEQ ID NO.29). Another fragment, p55, is observed in the absence of added protease (FIG. 19C, lane 1), likely during protein preparation. Thus, p55 is not a precursor of p40. Furthermore, incubation of dynamin with CatB generated p55 in a nucleotide-independent manner (FIG. 19F, lanes 2-4), whereas furin, another protease also found in podocytes in vivo, was unable to cleave dynamin (FIG. 19F, lanes 6-8). Thus, while p55 is produced by a number of proteases and thus represents a “hot spot” for proteolysis, p40 is generated by CatL only when dynamin is in the GTP-bound conformation.
At pH 5.0 and 6.0, CatL was highly reactive towards recombinant dynamin, even in the absence of GTP (FIG. 19D, lanes 2 and 4).
Recombinant dynamin was purified as described (Damke et al., 2001). 1 μg of dynamin (10 pmol) was diluted in buffer containing 200 mM NaCl, 10 mM HEPES pH 7.0, 2 mM EGTA, 1 mM MgCl2 and 1 mM DTT. When indicated 200 μM of GTP or 1 mM of GTPγS was added, and dynamin was allowed to bind nucleotides for 10 min on ice. Reaction was initiated by addition of 0.5 μl of purified CatL (S.A. 4.13 units/mg of protein from Sigma, Saint Louis, Mo.), and samples were placed at 37° C. in the water bath for 10 min. Total assay volume was 20 μl. Reaction was terminated with addition of E-64d inhibitor (Sigma, Saint Louis, Mo.), and sample buffer. For Western blot analysis 5 μl of the samples was run on 10% SDS-PAGE. When CatB (S.A. 3 units/mg of protein from Sigma, Saint Louis, Mo.) or recombinant human furin (from R&D Systems, Minneapolis, Minn.) were used, 2 μl of the enzymes were added in the assay.

[3] = donor CFP-WT, acceptor YFP-WT, cells treated with the substance

T1 sequence (P07711 114-333, species assumed): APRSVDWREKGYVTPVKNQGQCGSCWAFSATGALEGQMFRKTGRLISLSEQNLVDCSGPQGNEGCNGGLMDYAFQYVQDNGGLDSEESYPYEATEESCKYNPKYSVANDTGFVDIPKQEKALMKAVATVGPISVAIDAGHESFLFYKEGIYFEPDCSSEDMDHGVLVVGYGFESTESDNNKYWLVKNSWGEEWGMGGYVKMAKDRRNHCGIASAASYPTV

Molecule: COc1cc2c(c(OC)c1OC)-c1ccc(OC)c(=O)cc1[C@@H](NC(C)=O)CC2 [Colchisine, reference compound]
Mean Lifetime (γ1) [1]: 2295 ± 98

Molecule: C=C1[C@@H](C)[C@H]2[C@H](Cc3ccccc3)NC(=O)[C@]23[C@H](OC(C)=O)/C=C/[C@@](C)(O)C(=O)[C@@H](C)C/C=C/[C@H]3[C@@H]1O [Cyto. D, cytochalasin D]
dynamin-dynamin interactions measured by FLIM, in words [2]: significantly promoted dynamin-dynamin interactions
Mean Lifetime (γ1) ps [2, 3]: 510 ± 29 ps
dynamin self-assembly by FLIM, in words [1]: decrease in the lifetime of alexa 488 is detected through the cytoplasm

Molecule: Nc1nc2c(ncn2[C@@H]2O[C@H](COP(=O)(O)OP(=O)(O)OP(=O)(O)O)[C@@H](O)[C@H]2O)c(=O)[nH]1 [GTP]
cleavage of dynamin by cathepsin L, in words (cathepsin L; pH 7.0): resulted in significant cleavage of dynamin by cathepsin L; also recorded: resulted in the generation of a prominent proteolytic fragment

cleavage of dynamin by cathepsin L, in words (cathepsin L; acidic pH (5.0 and 6.0)): completely inhibited
cleavage of dynamin by cathepsin L, in words (cathepsin L; acidic pH (5.0 and 6.0), listed as GTP7S): completely inhibited
cleavage of dynamin by cathepsin L, in words (cathepsin L; pH 7.0, listed as GTPgammaS): inhibited
Molecule: Nc1nc2c(ncn2[C@@H]2O[C@H](COP(=O)(O)OP(=O)(O)OP(O)(O)=S)[C@@H](O)[C@H]2O)c(=O)[nH]1 [GTPγS]
cleavage of dynamin by cathepsin L, in words (cathepsin L; acidic pH (5.0 and 6.0), listed as GTPgammaS): protects from cathepsin L mediated cleavage
cleavage of dynamin by cathepsin L, in words (cathepsin L; pH 7.0): abolished dynamin cleavage by cathepsin L; also recorded: did not stimulate cleavage by CatL

Molecule: C/C1=C\[C@H](C)C[C@H](C)OC(=O)C[C@H](c2ccc(O)cc2)NC(=O)[C@@H](Cc2c(Br)[nH]c3ccccc23)N(C)C(=O)[C@H](C)NC(=O)[C@@H](C)C1 [Jaspl., jasplakinolide, reference compound]
dynamin-dynamin interactions measured by FLIM, in words [2]: had no effect
Mean Lifetime (γ1) ps [2, 3]: 845 ± 263 ps
Mean Lifetime (γ1) [1]: 2254 ± 58
dynamin self-assembly by FLIM, in words [1]: did not effect dynamin self-assembly at the membrane

Molecule: COC(=O)Nc1nc2ccc(C(=O)c3cccs3)cc2[nH]1 [nocodazole]
dynamin-dynamin interactions measured by FLIM, in words [2]: had no effect on dynamin oligomerization

Molecule: b-methyl-cyclodextrin [MBCD]
dynamin-dynamin interactions measured by FLIM, in words [2]: occurred unchanged
Mean Lifetime (γ1) ps [2, 3]: 916 ± 427 ps

B1: CFP-1690K: dynI690K tagged with ECFP (protein)
chain: MGNRGMEDLIPLVNRLQDAFSAIGQNADLDLPQIAVVGGQSAGKSSVLENFVGRDFLPRGSGIVTRRPLVLQLVNATTEYAEFLHCKGKKFTDFEEVRLEIEAETDRVTGTNKGISPVPINLRVYSPHVLNLTLVDLPGMTKVPVGDQPPDIEFQIRDMLMQFVTKENCLILAVSPANSDLANSDALKVAKEVDPQGQRTIGVITKLDLMDEGTDARDVLENKLLPLRRGYIGVVNRSQKDIDGKKDITAALAAERKFFLSHPSYRHLADRMGTPYLQKVLNQQLTNHIRDTLPGLRNKLQSQLLSIEKEVEEYKNFRPDDPARKTKALLQMVQQFAVDFEKRIEGSGDQIDTYELSGGARINRIFHERFPFELVKMEFDEKELRREISYAIKNIHGIRTGLFTPDMAFETIVKKQVKKIREPCLKCVDMVISELISTVRQCTKKLQQYPRLREEMERIVTTHIREREGRTKEQVMLLIDIELAYMNTNHEDFIGFANAQQRSNQMNKKKTSGNQDEILVIRKGWLTINNIGIMKGGSKEYWFVLTAENLSWYKDDEEKEKKYMLSVDNLKLRDVEKGFMSSKHIFALFNTEQRNVYKDYRQLELACETQEEVDSWKASFLRAGVYPERVGDKEKASETEENGSDSFMHSMDPQLERQVETIRNLVDSYMAIVNKTVRDLMPKTIMHLMKNNTKEFIFSELLANLYSCGDQNTLMEESAEQAQRRDEMLRMYHALKEALSIIGDINTTTVSTPMPPPVDDSWLQVQSVPAGRRSPTSSPTPQRRAPAVPPARPGSRGPAPGPPPAGSALGGAPPVPSRPGASPDPFGPPPQVPSRPNRAPPGVPSRSGQASPSRPESPRPPFDL
modifications: left off: large carriers
notes: dynI690K tagged with ECFP
Mean Lifetime (γ1) ps ([2]; acceptor YFP not fused to dynamin): 1838 ± 309 ps
Mean Lifetime (γ1) ps ([2]; donor alone, no acceptor): 2292 ± 297 ps

B2: CFP-K44A: dynK44A tagged with ECFP (protein)
chain: B1 chain with K44A, K690I
modifications: left off: large carriers
notes: dynK44A tagged with ECFP
Mean Lifetime (γ1) ps ([2]; acceptor YFP fused to the same dynamin variant): 1858 ± 187 ps
